Test results: ChEMBL document CHEMBL1158289, “Bioactive amides from Glycosmis species” (J Nat Prod, 1996)
Values after ≈ are worked out from the molar mass of the structure shown.

Tests used:
Cladosporium herbarum = test: Antifungal activity against Cladosporium herbarum assessed as inhibition of spore germination after 36 hrs by germtube inhibition test; type: functional; conditions: read-out: ED50 (the source's name)
Spodoptera littoralis [1] = test: Toxicity in Spodoptera littoralis neonatal larvae assessed as growth inhibition after 5 days; type: organism-based
Spodoptera littoralis [2] = test: Toxicity in Spodoptera littoralis neonatal larvae assessed as survival rate after 5 days; type: organism-based; conditions: in vivo, 120 h
Spodoptera littoralis [3] = test: Contact toxicity in Spodoptera littoralis neonatal larvae assessed as mortality after 48 hrs; type: organism-based; conditions: in vivo

Structure (SMILES) | EC50 (Cladosporium herbarum) [µg/mL] | EC50 (Spodoptera littoralis [1]) [µmol/g] | LC50 (Spodoptera littoralis [2]) [µmol/g] | LC50 (Spodoptera littoralis [3]) [umol/dm'2]
CNC(=O)/C=C/SC [PENANGIN] | > 200 | 0.84 | > 10 | 2.84
CSC(=O)N(C)/C=C/c1ccccc1 [DEHYDRONIRANIN A] | 100 (≈ 482 µM) | 0.41 | 1.64 | 0.18
CS/C=C/C(=O)N(C)/C=C/c1ccccc1 [METHYLILLUKUMBIN A] | 5.5 (≈ 23.6 µM) | 0.94 | > 5 | > 6.5
CSC(=O)N(C)C(=O)Cc1ccccc1 [RITIGALIN] | 156 (≈ 699 µM) | 0.43 | 1.34 | 0.05
CSC(=O)N(C)CCc1ccccc1 [NIRANIN] | 28 (≈ 134 µM) | 0.25 | 0.81 | 0.03
CS/C=C/C(=O)N(C)CCc1ccccc1 | 17.6 (≈ 74.8 µM) | 0.47 | 4.24 | 0.03
CSC(=O)N(C)/C=C\c1ccccc1 [DEHYDRONIRANIN B] | 8.4 (≈ 40.5 µM) | 0.37 | 0.96 | 0.02
